Assay type in all cases: cell-based
Assay [1] addresses T1, human cloned CHRM5 receptor (Homo sapiens, UniProt P08912).
T1 construct: expressed in transfected cells; host or cells: CHO (M5_CHO)
T1 sequence (P08912 1-532): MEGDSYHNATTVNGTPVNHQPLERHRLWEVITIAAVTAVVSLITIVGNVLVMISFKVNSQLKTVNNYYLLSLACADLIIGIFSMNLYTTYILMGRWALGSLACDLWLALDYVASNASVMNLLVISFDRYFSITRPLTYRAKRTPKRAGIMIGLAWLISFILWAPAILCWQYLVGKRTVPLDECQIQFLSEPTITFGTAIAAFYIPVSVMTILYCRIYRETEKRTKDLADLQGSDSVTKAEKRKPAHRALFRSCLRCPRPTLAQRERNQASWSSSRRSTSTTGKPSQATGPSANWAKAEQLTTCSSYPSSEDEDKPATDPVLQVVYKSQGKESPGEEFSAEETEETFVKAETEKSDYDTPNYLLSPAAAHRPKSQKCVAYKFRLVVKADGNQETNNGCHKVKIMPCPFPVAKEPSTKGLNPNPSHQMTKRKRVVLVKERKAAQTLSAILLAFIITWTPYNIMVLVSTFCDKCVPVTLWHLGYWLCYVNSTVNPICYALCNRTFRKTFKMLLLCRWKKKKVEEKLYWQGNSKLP
The assay is described as follows: CHRM5 Ca++ Flux Assay (M5_CHO cells, agonist mode). The settings on record: for Emax / M5 FDSS PA %: Percent Activity (PA) measured to EC100 of Carbachol; for Emax: read-out: M5 FDSS PA %; for EC50: agonist mode, geometric mean if tested more than once, read-out: M5 FDSS EC50. In outline: (§1)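 Agonist-mode calcium mobilisation: compounds, 11 concentrations in triplicate, applied to stable M3_CHO or M5_CHO cells loaded with Ca++ dye, fluorescence followed 3 min. Efficacy expressed against carbachol EC100; EC curves by four-parameter nonlinear regression, geometric mean across independent runs.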

Assay [2] concerns the target T2, Cloned human M1 receptor (CHRM1) (Homo sapiens, UniProt P11229).
T2 construct: expressed in transfected cells; host or cells: HEK293
T2 sequence (P11229 1-460): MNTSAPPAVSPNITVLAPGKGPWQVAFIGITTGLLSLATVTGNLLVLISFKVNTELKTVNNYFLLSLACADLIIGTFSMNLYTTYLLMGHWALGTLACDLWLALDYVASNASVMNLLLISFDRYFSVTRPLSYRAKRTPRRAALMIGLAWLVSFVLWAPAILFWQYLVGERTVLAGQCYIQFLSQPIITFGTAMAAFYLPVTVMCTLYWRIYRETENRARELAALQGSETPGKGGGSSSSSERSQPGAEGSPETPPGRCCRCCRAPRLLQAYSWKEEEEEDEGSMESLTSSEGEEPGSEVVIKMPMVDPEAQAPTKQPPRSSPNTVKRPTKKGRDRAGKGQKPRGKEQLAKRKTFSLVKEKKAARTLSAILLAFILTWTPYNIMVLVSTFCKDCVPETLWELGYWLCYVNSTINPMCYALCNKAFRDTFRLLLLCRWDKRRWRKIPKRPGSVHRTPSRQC
The assay is described as follows: CHRM1 Ca++ Flux Assay (HEK293 M1 cells, agonist mode). Particulars: for Emax / M1 FDSS PA %: Percent Activity (PA); for Emax: read-out: M1 FDSS PA %; for EC50: geometric mean if tested more than once, read-out: M1 FDSS EC50. Summed up:
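In agonist mode, compound-induced intracellular Ca++ mobilization was recorded for 3 min by fluorescent imager. The cells were HEK293 stably expressing cloned human CHRM1, in Ca/Mg-free HBSS with 20 mM HEPES. Triplicate 11-point dose-responses were fitted by four-parameter regression and normalized to the carbachol EC100 response.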

For assay [3], the target named is T3, human cloned CHRM3 receptor (Homo sapiens, UniProt P20309).
T3 construct: expressed in transfected cells; host or cells: CHO-K1 (M3_CHO)
T3 sequence (P20309 whole entry): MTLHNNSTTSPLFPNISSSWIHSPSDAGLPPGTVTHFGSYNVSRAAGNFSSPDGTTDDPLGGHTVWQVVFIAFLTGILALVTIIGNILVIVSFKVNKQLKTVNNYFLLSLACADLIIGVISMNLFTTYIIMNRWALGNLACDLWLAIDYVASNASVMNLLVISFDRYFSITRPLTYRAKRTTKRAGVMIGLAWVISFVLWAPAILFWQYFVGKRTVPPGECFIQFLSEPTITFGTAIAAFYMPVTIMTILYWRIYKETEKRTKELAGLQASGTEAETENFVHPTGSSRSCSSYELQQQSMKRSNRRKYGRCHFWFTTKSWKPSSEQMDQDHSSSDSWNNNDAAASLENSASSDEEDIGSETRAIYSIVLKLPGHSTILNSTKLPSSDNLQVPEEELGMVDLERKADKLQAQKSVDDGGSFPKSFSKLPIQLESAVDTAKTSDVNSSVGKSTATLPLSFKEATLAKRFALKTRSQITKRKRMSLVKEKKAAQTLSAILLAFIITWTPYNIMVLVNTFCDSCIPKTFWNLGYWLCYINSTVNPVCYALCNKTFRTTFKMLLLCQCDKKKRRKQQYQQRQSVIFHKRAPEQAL
Briefly: CHRM3 Ca++ Flux Assay (M3_CHO cells, agonist mode). Particulars: for Emax / M3 FDSS PA %: Percent Activity (PA) measured to EC100 of Carbachol; for Emax: read-out: M3 FDSS PA %; for EC50: agonist mode, geometric mean if tested more than once, read-out: M3 FDSS EC50. In outline: as §1

Usually EC50 stands for the concentration needed to bring the measured effect to its halfway point.

For `Cc1nc(COc2ccccc2C2CCN([C@@H]3COC4(C3)CN(c3nncs3)C4)CC2)no1` [Example 5F, (S)-7-(4-(2-((5-methyl-1,2,4-oxadiazol-3-yl)methoxy)phenyl)piperidin-1-yl)-2-(1,3,4-thiadiazol-2-yl)-5-oxa-2-azaspiro[3.4]octane], the Emax in assay [1] came to 35%; in assay [2], 106%; in assay [3], 15%. Moreover, the EC50 in assay [1] came out at 2.53 µM; in assay [2], 11 nM; in assay [3] it was 11.8 µM.
Regarding `Fc1ccc(OC2CCOCC2)c(C2CCN([C@@H]3COC4(C3)CN(c3ncco3)C4)CC2)c1` [Example 4E, (S)-7-(4-(5-fluoro-2-((tetrahydro-2H-pyran-4-yl)oxy)phenyl)piperidin-1-yl)-2-(oxazol-2-yl)-5-oxa-2-azaspiro[3.4]octane], the Emax in assay [1] turned out to be 0%; in assay [2], 75%; in assay [3] it was 0%. Besides, the concentration giving a half-maximal response (EC50) in assay [1] is above 25 µM; in assay [2], 979 nM; in assay [3], above 25 µM.
As to `Fc1ccc(O[C@H]2CCCOC2)c(C2CCN([C@@H]3COC4(C3)CN(c3nnco3)C4)CC2)c1` (single isomer, unassigned) [Example 2R, (S)-7-(4-(5-fluoro-2-(((S)-tetrahydro-2H-pyran-3-yl)oxy)phenyl)piperidin-1-yl)-2-(1,3,4-oxadiazol-2-yl)-5-oxa-2-azaspiro[3.4]octane or (S)-7-(4-(5-fluoro-2-(((R)-tetrahydro-2H-pyran-3-yl)oxy)phenyl)piperidin-1-yl)-2-(1,3,4-oxadiazol-2-yl)-5-oxa-2-azaspiro[3.4]octane], in assay [1], the “M5 FDSS PA %” value is listed as 0% and the EC50 was above 25 µM. Also, in assay [2], the “M1 FDSS PA %” value amounted to 56% and the EC50 worked out at 848 nM. Besides, in assay [3], the “M3 FDSS PA %” value was 0% and the EC50 was above 25 µM.
For the molecule `c1ccc(C2CCN([C@@H]3COC4(C3)CN(c3ncco3)C4)CC2)c(-c2cncnc2)c1` [Example 4R, (S)-2-(oxazol-2-yl)-7-(4-(2-(pyrimidin-5-yl)phenyl)piperidin-1-yl)-5-oxa-2-azaspiro[3.4]octane], the Emax came out at 0% in assay [1], 95% in assay [2] and 0% in assay [3]. Besides, the EC50 in assay [1] is above 25 µM; in assay [2], 128 nM; in assay [3], above 25 µM.
On to `Fc1cc(F)c(OC2COC2)c(C2CCN([C@@H]3COC4(C3)CN(c3nnco3)C4)CC2)c1` [Example 2EE, (S)-7-(4-(3,5-difluoro-2-(oxetan-3-yloxy)phenyl)piperidin-1-yl)-2-(1,3,4-oxadiazol-2-yl)-5-oxa-2-azaspiro[3.4]octane], for which the Emax in assay [1] turned out to be 0%; in assay [2], 95%; in assay [3], 0%. The half-maximal effective concentration (EC50) in assay [1] was above 25 µM; in assay [2] it was 2340 nM; in assay [3] it was above 25 µM.
`c1ccc(C2CCN([C@@H]3COC4(C3)CN(c3ncco3)C4)CC2)c(O[C@H]2CCOC2)c1` [Example 4H, (S)-2-(oxazol-2-yl)-7-(4-(2-(((S)-tetrahydrofuran-3-yl)oxy)phenyl)piperidin-1-yl)-5-oxa-2-azaspiro[3.4]octane]: the Emax in assay [1] stood at 0%; in assay [2] it was 63%; in assay [3], 0%. Besides, the half-maximal effective concentration (EC50) is above 25 µM in assay [1], 745 nM in assay [2] and above 25 µM in assay [3].
Consider `COc1cc(F)ccc1C1CCN([C@@H]2COC3(C2)CN(c2ncns2)C3)CC1` [Example 5E, (S)-7-(4-(4-fluoro-2-methoxyphenyl)piperidin-1-yl)-2-(1,2,4-thiadiazol-5-yl)-5-oxa-2-azaspiro[3.4]octane], for which the Emax in assay [1] was determined as 0%; in assay [2] it was 29%; in assay [3] it was 0%. Besides, the results for the EC50 in assay [1], in assay [2] and in assay [3] were 13 µM, 2580 nM and above 25 µM, respectively.
With `Fc1ccc(OC[C@H]2COCCO2)c(C2CCN([C@@H]3COC4(C3)CN(c3nncs3)C4)CC2)c1` [Example 5K, (S)-7-(4-(2-(((R)-1,4-dioxan-2-yl)methoxy)-5-fluorophenyl)piperidin-1-yl)-2-(1,3,4-thiadiazol-2-yl)-5-oxa-2-azaspiro[3.4]octane], the Emax in assay [1] amounted to 0%; in assay [2], 96%; in assay [3], 0%. Moreover, the results for the EC50 in assay [1], in assay [2] and in assay [3] were 6.64 µM, 434 nM and above 25 µM, respectively.
Take `c1ccc(C2CCN([C@@H]3COC4(C3)CN(c3ncco3)C4)CC2)c(OC2CC3(COC3)C2)c1` [Example 4M, (S)-7-(4-(2-((2-oxaspiro[3.3]heptan-6-yl)oxy)phenyl)piperidin-1-yl)-2-(oxazol-2-yl)-5-oxa-2-azaspiro[3.4]octane]: the Emax in assay [1] amounted to 0%; in assay [2], 49%; in assay [3] it was 0%. Further, the EC50 in assay [1] was above 25 µM; in assay [2] it was 2810 nM; in assay [3] it was above 25 µM.
For the molecule `C[C@H](Oc1ccc(F)cc1C1CCN([C@@H]2COC3(C2)CN(c2nnco2)C3)CC1)C1CCOCC1` (single isomer, unassigned) [Example 2Y, (S)-7-(4-(5-fluoro-2-((S)-1-(tetrahydro-2H-pyran-4-yl)ethoxy)phenyl)piperidin-1-yl)-2-(1,3,4-oxadiazol-2-yl)-5-oxa-2-azaspiro[3.4]octane or (S)-7-(4-(5-fluoro-2-((R)-1-(tetrahydro-2H-pyran-4-yl)ethoxy)phenyl)piperidin-1-yl)-2-(1,3,4-oxadiazol-2-yl)-5-oxa-2-azaspiro[3.4]octane], in assay [1], the “M5 FDSS PA %” value was 13% and the EC50 amounted to 9.46 µM. Besides, in assay [2], the “M1 FDSS PA %” value turned out to be 51% and the EC50 was found to be 10800 nM. In assay [3], the “M3 FDSS PA %” value is recorded as 0% and the half-maximal effective concentration (EC50) is above 25 µM.
Regarding `CC(C)(C#N)COc1ccc(F)cc1C1CCN([C@@H]2COC3(C2)CN(c2nnco2)C3)CC1` [Example 1E, (S)-3-(2-(1-(2-(1,3,4-oxadiazol-2-yl)-5-oxa-2-azaspiro[3.4]octan-7-yl)piperidin-4-yl)-4-fluorophenoxy)-2,2-dimethylpropanenitrile], the Emax in assay [1] was found to be 0%; in assay [2], 84%; in assay [3] it was 0%. For the same molecule, the values for the EC50 in assay [1], in assay [2] and in assay [3] were above 25 µM, 563 nM and above 25 µM, respectively.

The values above are taken from patent publication US11485742B2, “2-azaspiro[3.4]octane derivatives as M4 agonists” (NOVARTIS AG, priority 2019, dated 2022).
